Results on 26 compounds are retold here after publication PMC6660996 (Bioorganic & medicinal chemistry, 2019).

The test system of the first assay is T. cruzi (amastigotes). Kind of assay: T. cruzi amastigote assays. Format: cell-based. The following applies: Trypanosoma cruzi, read-out: T. cruzi cells ED50.
In the case of `CCCNC(P(=O)(O)O)P(=O)(O)O` [Compound 21, 1-n-Propylaminomethyl-1,1-bisphosphonic acid], the IC50 is greater than 10 µM.
On the same count and under the same terms, the result for `CCCCNC(P(=O)(O)O)P(=O)(O)O` [Compound 22, 1-n-Butylaminomethyl-1,1-bisphosphonic acid] reads greater than 10 µM.

The same assay, now with this note: Trypanosoma cruzi, read-out: T. cruzi cells ED50, amastigotes; Table 3.
As to `CCCCCNC(P(=O)(O)O)P(=O)(O)O` [Compound 23, 1-n-Pentylaminomethyl-1,1-bisphosphonic acid], the IC50 was greater than 10 µM.
Still for that read-out and setting: next, `CCCCCCNC(P(=O)(O)O)P(=O)(O)O` [Compound 24, 1-n-Hexylaminomethyl-1,1-bisphosphonic acid]: greater than 10 µM; `CCCCCCCNC(P(=O)(O)O)P(=O)(O)O` [Compound 25, 1-n-Heptylaminomethyl-1,1-bisphosphonic acid]: greater than 10 µM; `CCCCCCCCNC(P(=O)(O)O)P(=O)(O)O` [Compound 26, 1-n-Octylaminomethyl-1,1-bisphosphonic acid]: greater than 10 µM.
Still for that read-out and setting: the result for `CCCCCCCCCNC(P(=O)(O)O)P(=O)(O)O` [Compound 27, 1-n-Nonylaminomethyl-1,1-bisphosphonic acid] reads greater than 10 µM; that for `CCCCCCCCCCNC(P(=O)(O)O)P(=O)(O)O` [Compound 28, 1-n-Decylaminomethyl-1,1-bisphosphonic acid], 5.3 µM; that for `O=P(O)(O)C(NC1CCCC1)P(=O)(O)O` [Compound 30, (Cyclopentylamino)methyl-1,1-bisphosphonic acid], greater than 10 µM.
The same measure, in the same setting: next, `O=P(O)(O)C(NC1CCCCC1)P(=O)(O)O` [Compound 31, (Cyclohexylamino)methyl-1,1-bisphosphonic acid]: greater than 10 µM.
On to `O=P(O)(O)C(NC1CCCCCC1)P(=O)(O)O` [Compound 32, (Cycloheptylamino)methyl-1,1-bisphosphonic acid], for which the IC50 is greater than 10 µM.
Same read-out and setting: next, `O=P(O)(O)C(N1CCCCC1)P(=O)(O)O` [Compound 33, (Piperidin-1-yl)methyl-1,1-bisphosphonic acid]: greater than 10 µM; `O=P(O)(O)C(CNC1CCCC1)P(=O)(O)O` [Compound 47, 1-[(Cyclopentylamino)ethyl] 1,1-bisphosphonic acid]: greater than 10 µM.
Still for that read-out and setting: the result for `O=P(O)(O)C(CNC1CCCCCC1)P(=O)(O)O` [Compound 48, 1-[(Cycloheptylamino)ethyl] 1,1-bisphosphonic acid] reads greater than 10 µM; that for `CC1CCC(NCC(P(=O)(O)O)P(=O)(O)O)CC1` (stereo not shown) [Compound 49, 1-[(4-methylcyclohexylamino)ethyl] 1,1-bisphosphonic acid], greater than 10 µM.

For the next assay, the system named is T. gondii (tachyzoites). As to the kind of experiment: T. gondii tachyzoites assays. The following applies: Toxoplasma gondii, read-out: T. gondii cells ED50, tachyzoites; Table 3. Format: cell-based.
Take `CCCCCCCCCCCS(=O)(=O)CC(P(=O)(O)O)P(=O)(O)O` [Compound 56, 1-[(n-Undecylsulfonyl)ethyl]-1,1-biphosphonic acid]: the IC50 worked out at 0.53 µM.

The subject of the next assay is T. gondii (tachyzoites).
Test: not given
The following applies: tachyzoites proliferation; cited from earlier work.
With `CCCCCCCCCCS(=O)(=O)CC(P(=O)(O)O)P(=O)(O)O` [Compound 18], the “in vitro activity against T. gondii ED50” value is 0.1 µM.

The same assay, now with this note: tachyzoites; already published data; ref 47-55 (see b12); cited from earlier work.
`CCCCCCCCC(F)(P(=O)(O)O)P(=O)(O)O` [Compound 10]: the “T. gondii growth ED50” value was 2.67 µM.
On to `CCCCCCCCCC(F)(P(=O)(O)O)P(=O)(O)O` [Compound 11], for which the “T. gondii growth ED50” value was greater than 10.0 µM.
Consider `CCCCCCNCC(P(=O)(O)O)P(=O)(O)O` [Compound 12], for which the “T. gondii growth ED50” value is 9.4 µM.
In the case of `CCCCCCCNCC(P(=O)(O)O)P(=O)(O)O` [Compound 13], the “T. gondii growth ED50” value is greater than 50.0 µM.
For the compound `CCCCCCCCCCCCNCC(P(=O)(O)O)P(=O)(O)O` [Compound 14], the “T. gondii growth ED50” value was 6.23 µM.
Consider `CCCCCCCCNCC(O)(P(=O)(O)O)P(=O)(O)O` [Compound 15], for which the “T. gondii growth ED50” value was 2.0 µM.
Regarding `CCCCCCCSCC(P(=O)(O)O)P(=O)(O)O` [Compound 16], the “T. gondii growth ED50” value was 0.97 µM.
Turning to `CCCCCCCCCCSCC(P(=O)(O)O)P(=O)(O)O` [Compound 17], the “T. gondii growth ED50” value was 1.8 µM.
Consider `CCCCCCCCCCS(=O)(=O)CC(P(=O)(O)O)P(=O)(O)O` [Compound 18], for which the “T. gondii growth ED50” value is 0.11 µM.
On to `CCCCCCCC[S+](C)CC(P(=O)(O)O)P(=O)(O)O.F[B-](F)(F)F` (stereo not shown) [Compound 19], for which the “T. gondii growth ED50” value was 7.0 µM.

A further assay has as its system hypervirulent RH strain of T. gondii.
Test: not given
The following applies: cited from earlier work.
Turning to `CCCCCCCSCC(P(=O)(O)O)P(=O)(O)O` [Compound 16], the “effect in combination with statins in in vivo assays” value is “strong synergistic effect”.
